Experiments:
[1] = tested on: 4T1 cells; test: CFSE cell proliferation assay, 4T1 cells; assay type: cell-based, BALB/c; conditions: FIG. 9; graded doses, 24 hours
Protocol: All reagents were from Sigma-Aldrich (Milan, Italy), unless specified. Compound 14 was dissolved as a 25 mM stock solution in culture medium. 4T1 cells, a 6-thioguanine-resistant cell line derived from a BALB/c mammary carcinoma which spontaneously metastasizes to both the lung and liver, were obtained by ATCC and maintained at 37° C. in a humidified atmosphere of 5% CO2 in Dulbecco's modified Eagle's Medium (DMEM) supplemented with 10% inactivated fetal bovine serum (FBS) and 1% penicillin-streptomycin. For cell growth assays, serum-starved 4T1 cells were labeled with carboxyfluorescein diacetate succinimidyl ester (CFSE) (Invitrogen, Milan Italy) at 37° C. for 30 minutes, and then treated with increasing doses of compound 14. After 24 hours, cells were incubated with 5 μg/ml of propidium iodide (PI) for 15 minutes, at 4° C. CFSE and/or PI-positive cells were determined by flow cytometry (Becton Dickinson, Milan, Italy)

[2] = tested on: colonic IEL (intra-epithelial lymphocytes); test: Proliferation of normal colonic intra-epithelial lymphocytes (anti-CD3/CD28); assay type: cell-based; conditions: FIG. 4A; anti-CD3/CD28, graded doses, 48 hours

`COc1ccc(N)cc1C(=O)NO` [compound 14, 2-methoxy-5-amino-N-hydroxybenzamide] was tested, and the “in vitro proliferation of 4T1 cells” value [1] was “dose-dependently inhibited” and the “proliferation of normal colonic intra-epithelial lymphocytes” value [2] was “did not affect”.

Source: US8501806B2, “Methods for preventing or reducing colon carcinogenesis” (Nogra Pharma Limited, priority 2008, dated 2013)
